Consider 24 compounds from patent US12312370B2, “Immunoproteasome inhibitors” (Principia Biopharma Inc., priority 2017, dated 2025).

For orientation: IC50 means the concentration needed to halve the response being measured.

Format in all cases: biochemical
Assay [1] has as its target constitutive proteasome β5c unit (Homo sapiens, UniProt P28074). Kind of assay: Caliper-based proteasome enzymatic activity assay, β5c. To be noted: human recombinant constitutive proteasome 0.3 nM, FAM-labeled peptide substrate 1 μM, rt 3 h; read-out: β5c subunit IC50.
Assay [2] has as its target immunoproteasome LMP7/B5i subunit (Homo sapiens, UniProt P28062). Kind of assay: Caliper-based proteasome enzymatic activity assay, LMP7. Conditions: human recombinant immunoproteasome 0.3 nM, FAM-labeled peptide substrate 1 μM, rt 3 h; read-out: LMP7 subunit IC50.
Assay [3] has as its target immunoproteasome LPM2/β1i subunit (Homo sapiens, UniProt P28065). Kind of assay: Caliper-based proteasome enzymatic activity assay, LMP2. Conditions: human recombinant immunoproteasome 0.3 nM, FAM-labeled peptide substrate 1 μM, rt 2 h.

Regarding `CC(C)C=C(C#N)C(=O)N1CCC[C@H]1CNC(=O)N[C@@H](Cc1ccccc1)B(O)O` [Example 34, ((R)-1-(3-(((S)-1-(2-cyano-4-methylpent-2-enoyl)pyrrolidin-2-yl)methyl)ureido)-2-phenylethyl)boronic acid], the IC50 in assay [1] is more than 5000 nM; in assay [2] it was 231 nM; in assay [3] it was more than 5000 nM.
Consider `CC(C)(C=C(C#N)C(=O)N1CCC[C@@H]1CNC(=O)N[C@@H](Cc1coc2ccccc12)B(O)O)N1CCOCC1` [Example 47, ((R)-2-(benzofuran-3-yl)-1-(3-(((R)—1(2-cyano-4-methyl-4-morpholinopent-2-enoyl)pyrrolidin-2-yl)methyl)ureido)ethyl)boronic acid], for which the IC50 was 1900 nM in assay [1], 3.5 nM in assay [2] and more than 5000 nM in assay [3].
In the same order, the values of `CC(C)C=C(C#N)C(=O)N1CCCC[C@H]1CNC(=O)N[C@@H](Cc1ccccc1)B(O)O` [Example 35, ((R)-1-(3-(((S)-1-(2-cyano-4-methylpent-2-enoyl)piperidin-2-yl)methyl)ureido)-2-phenylethyl)boronic acid] are more than 5000 nM, 611 nM and more than 5000 nM.
In the same order, the values of `C=CC(=O)N1CCC[C@H]1CNC(=O)N[C@@H](Cc1ccccc1)B(O)O` [Example 37, ((R)-1-(3-(((S)-1-acryloylpyrrolidin-2-yl)methyl)ureido)-2-phenylethyl)boronic acid] are more than 5000 nM, 4530 nM and more than 5000 nM.
For `Cc1ccc(C[C@H](NC(=O)NC[C@H]2CCCN2C(=O)C(C#N)=CC(C)(C)C)B(O)O)cc1` [Example 43, ((R)-1-(3-(((R)-1-(2-cyano-4,4-dimethylpent-2-enoyl)pyrrolidin-2-yl)methyl)ureido)-2-(p-tolyl)ethyl)boronic acid], in that order: more than 5000 nM, 4.4 nM and more than 5000 nM.
With `CC(C)(C)C=C(C#N)C(=O)N1CCC[C@H]1CNC(=O)N[C@@H](Cc1ccccc1)B(O)O` [Example 39, ((R)-1-(3-(((S)-1-(2-cyano-4,4-dimethylpent-2-enoyl)pyrrolidin-2-yl)methyl)ureido)-2-phenylethyl)boronic acid], the IC50 in assay [1] was more than 5000 nM; in assay [2], 78.8 nM; in assay [3], more than 5000 nM.
In the case of `Cc1ccc(C[C@H](NC(=O)OC[C@H]2CCCN(C(=O)C(C#N)=CC(C)(C)C)C2)B(O)O)cc1` [Example 44, ((R)-1-(((((S)-1-(2-cyano-4,4-dimethylpent-2-enoyl)piperidin-3-yl)methoxy)carbonyl)amino)-2-(p-tolyl)ethyl)boronic acid], the figures for the 50% inhibitory concentration (IC50) in assay [1], in assay [2] and in assay [3] were 2850 nM, 2.2 nM and more than 5000 nM, respectively.
In the same order, the values of `CC(C)C=C(C#N)C(=O)NCCCC[C@H](NC(=O)c1cccc(O)n1)C(=O)N[C@@H](Cc1ccccc1)B(O)O` [Example 6, ((R)-1-((S)-6-(2-cyano-4-methylpent-2-enamido)-2-(6-hydroxypicolinamido)hexanamido)-2-phenylethyl)boronic acid] are 38.5 nM, 12.9 nM and 82.7 nM.
In the same order, the values of `CC(C)(C)C=C(C#N)C(=O)N1CCC[C@@H]1CNC(=O)N[C@@H](Cc1coc2ccccc12)B(O)O` [Example 45, ((R)-2-(benzofuran-3-yl)-1-(3-(((R)-1-(2-cyano-4,4-dimethylpent-2-enoyl)pyrrolidin-2-yl)methyl)ureido)ethyl)boronic acid] are 2070 nM, 4.7 nM and more than 5000 nM.
In the same order, the values of `CC(C)(C)C=C(C#N)C(=O)N1CCCC[C@H]1CNC(=O)N[C@@H](Cc1ccccc1)B(O)O` [Example 40, ((R)-1-(3-(((S)-1-(2-cyano-4,4-dimethylpent-2-enoyl)piperidin-2-yl)methyl)ureido)-2-phenylethyl)boronic acid] are more than 5000 nM, 669 nM and more than 5000 nM.
For `CC(C)(C=C(C#N)C(=O)N1C2CCC1(COC(=O)N[C@@H](Cc1ccccc1)B(O)O)CC2)N1CCC(F)(F)C1` [Example 57, (R)-(1-((((7-(2-cyano-4-(3,3-difluoropyrrolidin-1-yl)-4-methylpent-2-enoyl)-7-azabicyclo[2.2.1]heptan-1-yl)methoxy)carbonyl)amino)-2-phenylethyl)boronic acid], the IC50 turned out to be 1620 nM in assay [1], 2.6 nM in assay [2] and 3190 nM in assay [3].
In the same order, the values of `CC(C)C=C(C#N)C(=O)NCCCC[C@H](NC(=O)c1cnccn1)C(=O)N[C@@H](Cc1ccccc1)B(O)O` [Example 5, ((R)-1-((S)-6-(2-cyano-4-methylpent-2-enamido)-2-(pyrazine-2-carboxamido)hexanamido)-2-phenylethyl)boronic acid] are 27.4 nM, 12.3 nM and 115 nM.
In the same order, the values of `C=CC(=O)N1CC[C@H](OC(=O)N[C@@H](Cc2ccccc2)B(O)O)C1` [Example 88, ((R)-1-(((((S)-1-acryloylpyrrolidin-3-yl)oxy)carbonyl)amino)-2-phenylethyl)boronic acid] are 1610 nM, 113 nM and 1860 nM.
For `CC(C)(C=C(C#N)C(=O)N1CCC[C@H](OC(=O)N[C@@H](Cc2ccc(F)cc2)B(O)O)C1)N1CCC(F)(F)C1` [Example 78, ((R)-1-(((((S)-1-(2-cyano-4-(3,3-difluoropyrrolidin-1-yl)-4-methylpent-2-enoyl)piperidin-3-yl)oxy)carbonyl)amino)-2-(4-fluorophenyl)ethyl)boronic acid], in that order: 501 nM, 2.3 nM and more than 5000 nM.
For the compound `COC(=O)N1CCN(C(C)(C)C=C(C#N)C(=O)N2CCC[C@H](OC(=O)N[C@@H](Cc3ccccc3)B(O)O)C2)CC1` [Example 83, ((R)-1-(((((S)-1-(2-cyano-4-(4-(methoxycarbonyl)piperazin-1-yl)-4-methylpent-2-enoyl)piperidin-3-yl)oxy)carbonyl)amino)-2-phenylethyl)boronic acid], the IC50 is 944 nM in assay [1], 2.3 nM in assay [2] and more than 5000 nM in assay [3].
For `C=CC(=O)N1CCC[C@@H]1CNC(=O)N[C@@H](Cc1coc2ccccc12)B(O)O` [Example 41, ((R)-1-(3-(((R)-1-acryloylpyrrolidin-2-yl)methyl)ureido)-2-(benzofuran-3-yl)ethyl)boronic acid], in that order: more than 5000 nM, 30 nM and more than 5000 nM.
For `CC(C)(C=C(C#N)C(=O)N1CCC[C@H](OC(=O)N[C@@H](Cc2coc3ccccc23)B(O)O)C1)N1CCC(F)(F)C1` [Example 73, ((R)-2-(benzofuran-3-yl)-1-(((((S)-1-(2-cyano-4-(3,3-difluoropyrrolidin-1-yl)-4-methylpent-2-enoyl)piperidin-3-yl)oxy)carbonyl)amino)ethyl)boronic acid], in that order: 54.6 nM, 1.1 nM and more than 5000 nM.
As to `C=CC(=O)N1CCCC[C@H]1CNC(=O)N[C@@H](Cc1ccccc1)B(O)O` [Example 38, ((R)-1-(3-(((S)-1-acryloylpiperidin-2-yl)methyl)ureido)-2-phenylethyl)boronic acid], the IC50 in assay [1], in assay [2] and in assay [3] was more than 5000 nM each time.
Regarding `Cc1ccc(C[C@H](NC(=O)OC[C@H]2CCN(C(=O)C(C#N)=CC(C)(C)C)C2)B(O)O)cc1` [Example 46, ((R)-1-(((((S)-1-(2-cyano-4,4-dimethylpent-2-enoyl)pyrrolidin-3-yl)methoxy)carbonyl)amino)-2-(p-tolyl)ethyl)boronic acid], the figures for the IC50 in assay [1], in assay [2] and in assay [3] were 1690 nM, 4 nM and more than 5000 nM, respectively.
In the same order, the values of `CC(C)C=C(C#N)C(=O)NCCCC[C@H](NC(=O)c1cnccn1)C(=O)N[C@@H](CC(C)C)B(O)O` [Example 2, ((R)-1-((S)-6-(2-cyano-4-methylpent-2-enamido)-2-(pyrazine-2-carboxamido)hexanamido)-3-methylbutyl)boronic acid] are 8.5 nM, 12.8 nM and 46.3 nM.
In the same order, the values of `Cc1ccc(C[C@H](NC(=O)NC[C@@H]2CCCN2C(=O)C(C#N)=CC(C)(C)C)B(O)O)cc1` [Example 42, ((R)-1-(3-(((S)-1-(2-cyano-4,4-dimethylpent-2-enoyl)pyrrolidin-2-yl)methyl)ureido)-2-(p-tolyl)ethyl)boronic acid] are more than 5000 nM, 13 nM and more than 5000 nM.
`CC(C)(C=C(C#N)C(=O)N1CCCC[C@@H](OC(=O)N[C@@H](Cc2ccccc2)B(O)O)C1)N1CCOC2(CC2)C1` [Example 133, ((R)-1-(((((R)-1-(2-cyano-4-methyl-4-(4-oxa-7-azaspiro[2.5]octan-7-yl)pent-2-enoyl)azepan-3-yl)oxy)carbonyl)amino)-2-phenylethyl)boronic acid]: the IC50 was 942 nM in assay [1] and 1.4 nM in assay [2].
In the same order, the values of `C=CS(=O)(=O)N(C)c1cccc(C[C@H](NC(=O)c2cc(Cl)ccc2Cl)C(=O)N[C@@H](Cc2ccccc2)B(O)O)c1` [Example 16, ((R)-1-((S)-2-(2,5-dichlorobenzamido)-3-(3-(N-methylvinylsulfonamido)phenyl)propanamido)-2-phenylethyl)boronic acid] are 3.3 nM and 4.3 nM.
For `CC(C)C=C(C#N)C(=O)N1CCC[C@@H]1COC[C@H](NCC(F)(F)F)C(=O)N[C@@H](CC(C)C)B(O)O` [Example 28], in that order: 294 nM and 46 nM.
